Assays:
[1] = system: central nervous system activity; conditions: Loev et al. 1973; cited from earlier work
hashish activity = conditions: Bergel et al. 1943, cited from earlier work
flinch jump = assay: Flinch-jump test (FJ); format: in vivo, male albino rats, Charles River (Sprague-Dawley) CD strain; conditions: Rattus norvegicus, rats, 2 hours, read-out: ANALGESIC ACTIVITY ED50, FJ 2 hours
Description: Tests Using Electrical Nociceptive Stimuli
A modification of the flinch-jump procedure of Tenen, Psychopharmacologia, 12, 278-285 (1968) is used for determining pain thresholds. Male albino rats (175-200 g.) of the Charles River (Sprague-Dawley) CD strain are used. Prior to receiving the drug, the feet of each rat are dipped into a 20% glycerol/saline solution. The animals are then placed in a chamber and presented with a series of 1-second shocks to the feet which are delivered in increasing intensity at 30-second intervals. These intensities are 0.26, 0.39, 0.52, 0.78, 1.05, 1.31, 1.58, 1.86, 2.13, 2.42, 2.72 and 3.04 mA. Each animal's behavior is rated for the presence of (a) flinch, (b) squeak and (c) jump or rapid forward movement at shock onset. Single upward series of shock intensities are presented to each rat just prior to, and at 0.5, 2, 4 and 24 hours subsequent to drug treatment.
(§1) Results of the above tests are recorded as percent maximum possible effect (% MPE). The % MPE of each group is statistically compared to the % MPE of the standard and the predrug control values. The % MPE is calculated as follows: [formula]
(§2) By means of the above procedures, the analgesic activity of several compounds of this invention and of certain prior art compounds are determined. The data are reported in terms of maximum possible effect.
(§3) PBQ=phenylbenzoquinone-induced writhing; TF=tail flick; HP=hot plate; RTC=rat tail clamp; FJ=flinch jump; and TI=tail immersion assays.

tail flick = assay: Mouse tail flick analgesic testing (TF); format: in vivo, mice; conditions: Mus musculus; tail flick, mice
Description: (§4) Tests Using Thermal Nociceptive Stimuli
(b) Mouse Tail Flick Analgesic Testing
Tail flick testing in mice is modified after D'Amour and Smith, J. Pharmacol. Exp. Ther., 72, 74-79 (1941), using controlled high intensity heat applied to the tail. Each mouse is placed in a snug-fitting metal cylinder, with the tail protruding through one end. This cylinder is arranged so that the tail lies flat over a concealed heat lamp. At the onset of testing, an aluminum flag over the lamp is drawn back allowing the light beam to pass through the slit and focus onto the end of the tail. A timer is simultaneously activated. The latency of a sudden flick of the tail is ascertained. Untreated mice usually react within 3-4 seconds after exposure to the lamp. The end point for protection is 10 seconds. Each mouse is tested at 0.5 and 2 hours after treatment with morphine and the test compound. Morphine has an MPE50 of 3.2-5.6 mg./kg. (s.c.).
as §1, §2, §3

[2] = system: phenylbenzoquinone-induced writhing; assay: Suppression of phenylbenzoquinone irritant-induced writhing (PBQ); format: in vivo, Carworth Farms CF-1 mice; conditions: Mus musculus, mice, read-out: ANALGESIC ACTIVITY ED50, PBQ
Experimental: Test Using Chemical Nociceptive Stimuli
Suppression of Phenylbenzoquinone Irritant-Induced Writhing
Groups of 5 Carworth Farms CF-1 mice are pretreated subcutaneously or orally with saline, morphine, codeine or the test compound. Twenty minutes (if treated subcutaneously) or fifty minutes (if treated orally) later, each group is treated with intraperitoneal injection of phenylbenzoquinone, an irritant known to produce abdominal contractions. The mice are observed for 5 minutes for the presence or absence of writhing starting 5 minutes after the injection of the irritant. MPE50 's of the drug pretreatments in blocking writhing are ascertained.
as §1, §2, §3

tail immersion = assay: Tail immersion procedure (TI); format: in vivo, male albino mice, Charles River CD-1 strain; conditions: Mus musculus, 0.5 h; tail immersion, mice, 1/2 hour; read-out: ANALGESIC ACTIVITY ED50, TI 1/2 hour
Experimental: (c) Tail Immersion Procedure
The method is a modification of the receptacle procedure developed by Benbasset, et al., Arch. int. Pharmacodyn., 122, 434 (1959). Male albino mice (19-21 g.) of the Charles River CD-1 strain are weighed and marked for identification. Five animals are normally used in each drug treatment group with each animal serving as its own control. For general screening purposes, new test agents are first administered at a dose of 56 mg./kg. intraperitoneally or subcutaneously, delivered in a volume of 10 ml./kg. Preceding drug treatment and at 0.5 and 2 hours post drug, each animal is placed in the cylinder. Each cylinder is provided with holes to allow for adequate ventilation and is closed by a round nylon plug through which the animal's tail protrudes. The cylinder is held in an upright position and the tail is completely immersed in the constant temperature waterbath (56° C.). The endpoint for each trial is an energetic jerk or twitch of the tail coupled with a motor response. In some cases, the endpoint may be less vigorous post drug. To prevent undue tissue damage, the trial is terminated and the tail removed from the waterbath within 10 seconds. The response latency is recorded in seconds to the nearest 0.5 second. A vehicle control and a standard of known potency are tested concurrently with screening candidates. If the activity of a test agent has not returned to baseline values at the 2-hour testing point, response latencies are determined at 4 and 6 hours. A final measurement is made at 24 hours if activity is still observed at the end of the test day.
as §1, §2, §3

rat tail clamp = assay: Haffner tail pinch procedure / rat tail clamp (RTC); format: in vivo, male albino rats, Charles River (Sprague-Dawley) CD strain; conditions: 1 hour, read-out: ANALGESIC ACTIVITY ED50, RTC 1 hour
Experimental: Tests Using Pressure Nociceptive Stimuli
Effect on the Haffner Tail Pinch Procedure
A modification of the procedure of Haffner, Experimentelle Prufung Schmerzstillender. Mittel Deutch Med. Wschr., 55, 731-732 (1929) is used to ascertain the effects of the test compound on aggressive attacking responses elicited by a stimulus pinching the tail. Male albino rats (50-60 b.) of the Charles River (Sprague-Dawley) CD strain are used. Prior to drug treatment, and again at 0.5, 1, 2 and 3 hours after treatment, a Johns Hopkins 2.5-inch "bulldog" clamp is clamped onto the root of the rat's tail. The endpoint at each trial is clear attacking and biting behavior directed toward the offending stimulus, with the latency for attack recorded in seconds. The clamp is removed in 30 seconds if attacking has not yet occurred, and the latency of response is recorded as 30 seconds. Morphine is active at 17.8 mg./kg. (i.p.).
as §1, §2, §3

hot plate = assay: Mouse hot plate analgesic testing (HP); format: in vivo, mice; conditions: Mus musculus; hot plate, mice
Experimental: as §4
(a) Mouse Hot Plate Analgesic Testing
The method used is modified after Woolfe and MacDonald, J. Pharmacol. Exp. Ther., 80, 300-307 (1944). A controlled heat stimulus is applied to the feet of mice on a 1/8" thick aluminum plate. A 250 watt reflector infrared heat lamp is placed under the bottom of the aluminum plate. A thermal regulator, connected to thermistors on the plate surface, programs the heat lamp to maintain a constant temperature of 57° C. Each mouse is dropped into a glass cylinder (61/2" diameter) resting on the hot plate, and timing is begun when the animal's feet tough the plate. The mouse is observed at 0.5 and 2 hours after treatment when the test compound for the first "flicking"movements of one or both hind feet, or until 10 seconds elapse without such movements. Morphine has an MPE50 =4-5.6 mg./kg. (s.c.).
as §1, §2, §3

Structure (SMILES): CCCCCC(C)Oc1cc(O)c2c(c1)OC(C)(C)C1=C2CC(C)CC1 (stereo not shown) [--OCH(CH3)C5 H11]
- less active in central nervous system activity than the corresponding compound with the alkyl side chain directly attached [1]: 50%
- times as active as the compound in which oxygen is replaced by methylene [1]: 5 times

Structure (SMILES): CCCCOc1cc(O)c2c(c1)OC(C)(C)C1=C2CC(C)CC1 (stereo not shown) [butoxy]
- biological activity on replacing the 3-pentyl group by alkoxy (hashish activity): biological inactivity

Structure (SMILES): CCCCCCCCOc1cc(O)c2c(c1)OC(C)(C)C1=C2CC(C)CC1 (stereo not shown) [octoxy]
- biological activity on replacing the 3-pentyl group by alkoxy (hashish activity): biological inactivity

Structure (SMILES): CCCCCCOc1cc(O)c2c(c1)OC(C)(C)C1=C2CC(C)CC1 (stereo not shown) [hexoxy]
- biological activity on replacing the 3-pentyl group by alkoxy (hashish activity): biological inactivity
- hashish activity (hashish activity; at 10 to 20 mg./kg.): feeble hashish activity

Structure (SMILES): CC(CCCc1ccccc1)Oc1cc(O)c2c(c1)OC(C)(C)[C@@H]1CC[C@@H](O)C[C@@H]21 (relative stereo) [OCH(CH3)(CH2)3C6 H5, dl-6aβ,7,8,9,10,10aα-hexahydro-1-hydroxy-6,6-dimethyl-3-(1-methyl-4-phenylbutoxy)-6H-dibenzo[b,d]pyran-9β-ol]
- ED50 (flinch jump): 0.44 mg/kg
- ED50 (tail flick): 0.33 mg/kg
- ED50 [2]: 0.11 mg/kg
- ED50 (tail immersion): 0.4 mg/kg
- ED50 (rat tail clamp): 1.9 mg/kg
- ED50 (hot plate): 0.76 mg/kg

Structure (SMILES): CCCCCOc1cc(O)c2c(c1)OC(C)(C)C1=C2CC(C)CC1 (stereo not shown) [pentoxy]
- biological activity on replacing the 3-pentyl group by alkoxy (hashish activity): biological inactivity

— patent US4243674A, “9-Hydroxydibenzo[b,d]pyrans and intermediates therefore” (priority 1978, dated 1981)
